Reference: patent US4959368A, “Therapeutic agent for neurological diseases” (Mitsui Petrochemical Industries Ltd., priority 1986, dated 1990)

Tests used:
[1] = tested on: mouse neuroblastoma cell line neuro-2a; test: Activity on cell line neuro-2a (simple method); format: cell-based
Procedure, shortened: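 Cells (2–6×10^4 per dish) grown 1–2 days at 37 °C, then switched to serum-free RPMI/MEM with compound in PBS for 24 h. Live cells counted by erythrosine exclusion; score is fraction of cells bearing neurites at least as long as the cell's long diameter, from photos.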

[2] = tested on: rats with crushed sciatic nerves; test: Curative effect on rats with crushed sciatic nerves; format: in vivo, rat (male Wistar); conditions: for Rate of recovery in muscle weight: soleus muscle, saline 51.8 ± 1.2
Experimental: Curative effect on rats with crushed sciatic nerves:
The curing effect of the compound (I) of the invention was tested on rats having crushed scietic nerves as a model of peripheral nervous disorder using (1) a change in the action of the hind paw with the crushed sciatic nerves and (2) a change in the weight of the muscle as an index of the course of degeneration and regeneartion of peripheral nerves.
In the experiment, male Wistar rats (6 weeks old), seven per group, were used. The sciatic nerves were crushed by a method similar to the method of Yamatsu et al. (see Kiyomi Yamatsu, Takenori Kaneko, Akifumi Kitahara and Isao Ohkawa, Journal of Japanese Pharmacological Society, 72, 259-268 (1976) and the method of Hasegawa et al. (see Kazuo Hasegawa, Naoji Mikuni and Yutaka Sakai, Journal of Japanese Pharmacological Society, 74, 721-734 (1978). Specifically, under anesthesia with pentobarbital (40 mg/kg, i.p.), the left side sciatic nerve was exposed at the femur and that site of the exposed scietic nerve which was 5 mm to the center from the branched part between the N. tibialis and the N. suralis was crushed using a modified artery, klomme, having a width of 2 mm and a gap of 0.1 mm. After the operation, the rats were assigned to the test groups at random.
Compound No. 408 was selected as the compound (I) of the invention and intraperitoneally administered to the rats once a day from the day of operation to the 22nd day. A group to which mecobalamin (made by Gedeon Richter Ltd.) was administered and a group to which 0.9% saline was administered were used as controls. The following items were measured with the lapse of time (on the 1st, 4th, 7th, 10th, 14th, 17th, 21st, and 23rd days after the crushing of the scietic nerves).
(1) Change in the action of the side of the hind paw with the crushed scietic nerve:
By a method similar to the method of Hasegawa [Hasegawa, K., Experientia, 34, 750-751 (1978)], the distance between the first and fifth digits of the hind paw was measured.
The ratio of the measured distance to the normal distance was calculated and expressed in percentage (%).
(2) Change in the weight of muscle
It is known that removal of a nerve or its disorder causes atrophy of the muscle which is under its control, and the atrophy is gradually cured by re-control by the nerve. For this reason, a change in the weight of the muscle, which is quantitative, was selected as an index. Twenty-three days after the operation, the soleus muscles of both sides of paws were extracted under anesthesia with pentobarbital, and their weights were measured. The ratio of the weight of the soleus muscle on the crushed side to that of normal side was calculated and expressed in percentage (%).

[3] = tested on: rats with lesioned nigral dopaminergic nerve cells; test: Methamphetamine-induced rotational movement of rats with lesioned nigral dopaminergic nerve cells after transplantation of fetal cerebral cells; format: in vivo, rat (female Wistar); conditions: number within one minute
Experimental: Rats and mice models of central nervous disorders were prepared, and the pharmacological effects of the compounds (I) of this invention were tested. Specifically, nigral dopamine cells of the rat brain were chemically destroyed by injecting a very small amount of 6-hydroxydopamineto induce motor imbalance. Two weeks later, dopamine cells of fetal brain were transplanted in the caudate nucleus into the lesioned side of the rat brain and an attempt was made to improve the motor trouble. Specifically, beginning on the day of transplantation, the compound (I) of the invention was intraperitoneally administered every day over 2 weeks, and the activity of the compounds (I) of the invention on the improvement of the motor imbalance and the growth of the transplanted cells was examined.
Promoting effect on the improvement of motor imbalance due to injury of the rat's brain cells by transplantation of fetal cerebral cells:
Nigral dopaminergic nerve cells at the left side of the brain of 4-week old female Wistar rats (body weight 100 g) were lesioned by injecting a very small quantity of 6-hydroxydopamine. […] Upon administration of methamphethamine (5 mg/kg, i.p.) to the rats having the lesioned nigral dopaminergic nerve cells, they began rotational movement toward the lesioned side.
After two weeks from the destruction by the administration of the drug, portions of the […] containing dopamine cells (i.e., substantia nigra and the tagmentum at the abdomen side) were cut from the brain of a fetal rat of 14 to 17 days of age, cut finely, and treated with trypsin. Then, the extracted tissues were incubated at 37° C. for 30 minutes, and the tissues were subjected to pipetting to form a suspension. Five microliters of the suspension was transplanted each into two sites of the caudate nucleus of the lesioned side (10 microliters in total, about 10^5 cells).
Each of the compounds (I) in a dose of 100 mg/kg (i.p.) was administered every day over two weeks from the day of transplantation. The rotational movements induced by administration of methamphetamine were examined 2 weeks and 1 week before, and 2 weeks and 4 weeks after, the transplantation and the administration of the drug. The number of rotational movements within one minute was counted at intervals of 10 minutes after the administration of methamphetamine, and the total number of rotational movements counted six times was averaged to find a mean number of the rotational movements.

[4] = Table 2 neuro-2a Run No. 2, 1 μg/ml, control 7.9
[5] = Table 2 neuro-2a Run No. 2, 10 μg/ml, control 7.9
[6] = Run No. 1, 1 week before transplantation, saline 12.23 ± 4.88
[7] = Run No. 1, 2 weeks after transplantation, 100 mg/kg i.p. daily over two weeks, saline 5.9 ± 2.75
[8] = Run No. 1, 2 weeks before transplantation, saline 10.9 ± 4.57
[9] = Run No. 1, 4 weeks after transplantation, 100 mg/kg i.p. daily over two weeks, saline 3 ± 3.23
[10] = Run No. 2, 1 week before transplantation, saline 10 ± 5.3
[11] = Run No. 2, 2 weeks after transplantation, 100 mg/kg i.p. daily over two weeks, saline 4.4 ± 5.9
[12] = Run No. 2, 2 weeks before transplantation, saline 12 ± 3.95
[13] = Run No. 2, 4 weeks after transplantation, 100 mg/kg i.p. daily over two weeks, saline 1.5 ± 3.2

Row | Structure (SMILES) | Average of the proportions [1, 4] | Average of the proportions [1, 5] | Number of rotational movements (mean ± S.D.) [3, 6] | Number of rotational movements (mean ± S.D.) [3, 7] | Number of rotational movements (mean ± S.D.) [3, 8] | Number of rotational movements (mean ± S.D.) [3, 9] | Number of rotational movements (mean ± S.D.) [3, 10] | Number of rotational movements (mean ± S.D.) [3, 11] | Number of rotational movements (mean ± S.D.) [3, 12] | Number of rotational movements (mean ± S.D.) [3, 13] | further results
1 | CN1C(=O)Cc2cnc(N3CCNCC3)nc21 [Compound 408] | 27.73% | 25.05% | 12.27 ± 2.48 | 4.9 ± 2.38 | 8.57 ± 2.36 | 2.03 ± 1.56 | 11.06 ± 4.5 | 1.94 ± 2.0 | 10.94 ± 6.4 | 1.53 ± 2.1 | Rate of recovery of the interdigit distance ([2]; 21st day, 3 mg/kg ip once a day, saline 62.0 ± 2.4): 70.9 ± 3.5%; Rate of recovery of the interdigit distance ([2]; 21st day, 10 mg/kg ip once a day, saline 62.0 ± 2.4, *P < 0.05): 74.9 ± 3.1%; Rate of recovery of the interdigit distance ([2]; 21st day, 30 mg/kg ip once a day, saline 62.0 ± 2.4, ***P < 0.001): 79.6 ± 2.9%; Rate of recovery of the interdigit distance ([2]; 21st day, 100 mg/kg ip once a day, saline 62.0 ± 2.4): 68.9 ± 4.3%; Rate of recovery of the interdigit distance ([2]; 23rd day, 3 mg/kg ip once a day, saline 71.1 ± 3.4): 80.1 ± 3.6%; Rate of recovery of the interdigit distance ([2]; 23rd day, 10 mg/kg ip once a day, saline 71.1 ± 3.4, *P < 0.05): 82.3 ± 2.7%; Rate of recovery of the interdigit distance ([2]; 23rd day, 30 mg/kg ip once a day, saline 71.1 ± 3.4, *P < 0.05): 85.4 ± 4.1%; Rate of recovery of the interdigit distance ([2]; 23rd day, 100 mg/kg ip once a day, saline 71.1 ± 3.4): 77.3 ± 6.0%; Rate of recovery in muscle weight ([2]; 23rd day, 3 mg/kg ip, *P < 0.05): 58.0 ± 2.0%; Rate of recovery in muscle weight ([2]; 23rd day, 10 mg/kg ip, *P < 0.05): 59.4 ± 2.2%; Rate of recovery in muscle weight ([2]; 23rd day, 30 mg/kg ip, *P < 0.05): 59.3 ± 2.7%; Rate of recovery in muscle weight ([2]; 23rd day, 100 mg/kg ip, *P < 0.05): 63.9 ± 3.5%
2 | CN1Cc2nc(N3CCNCC3)ncc2C1=O [Compound 604] | 19.86% | 17.20% | 10.4 ± 5.75 | 2.99 ± 2.91 | 10.6 ± 3.82 | 3.37 ± 1.65 | 11.28 ± 4.0 | 1.03 ± 2.9 | 13.33 ± 4.9 | 0.75 ± 2.8 | Average of the proportions ([1]; Table 2 neuro-2a Run No. 3, 0.01 μg/ml, control 2.0): 10.7%; Average of the proportions ([1]; Table 2 neuro-2a Run No. 3, 0.1 μg/ml, control 2.0): 16.50%; Average of the proportions ([1]; Table 2 neuro-2a Run No. 3, 1 μg/ml, control 2.0): 11.25%
